pIC50: −log10 of the molar value. Each block holds one compound with its values, some of them ahead of it.
System: 475296-252-R-J1-PDC spheroid viability
Test: Anticancer human tumor 475296-252-R-J1-PDC patient-derived rectal carcinoma cell line growth inhibition [PI3K]
Details: spheroids with HUVEC and MSC; for pIC50: curve of first compound; for viability, T/C: stronger effect = lower value
In short: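 Tumor cells were combined with HUVEC and MSCs into spheroids, then dosed with PI3K-inhibitor combinations over half-log ranges capped near clinical Cmax or 10 microM.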

[1] = second compound 0.0316 µM, first compound 0.0316 µM
[2] = second compound 0.0316 µM, first compound 0.1 µM
[3] = second compound 0.0316 µM, first compound 0.316 µM
[4] = second compound 0.0316 µM, first compound 1 µM
[5] = second compound 0.0316 µM, first compound 3.16 µM
[6] = second compound 0.0316 µM, first compound 10 µM
[7] = second compound 0.1 µM, first compound 0.0316 µM
[8] = second compound 0.1 µM, first compound 0.1 µM
[9] = second compound 0.1 µM, first compound 0.316 µM
[10] = second compound 0.1 µM, first compound 1 µM
[11] = second compound 0.1 µM, first compound 3.16 µM
[12] = second compound 0.1 µM, first compound 10 µM
[13] = second compound 0.316 µM, first compound 0.0316 µM
[14] = second compound 0.316 µM, first compound 0.1 µM
[15] = second compound 0.316 µM, first compound 0.316 µM
[16] = second compound 0.316 µM, first compound 1 µM
[17] = second compound 0.316 µM, first compound 3.16 µM
[18] = second compound 0.316 µM, first compound 10 µM
[19] = second compound 1 µM, first compound 0.0316 µM
[20] = second compound 1 µM, first compound 0.1 µM
[21] = second compound 1 µM, first compound 0.316 µM
[22] = second compound 1 µM, first compound 1 µM
[23] = second compound 1 µM, first compound 3.16 µM
[24] = second compound 1 µM, first compound 10 µM
[25] = second compound 3.16 µM, first compound 0.0316 µM
[26] = second compound 3.16 µM, first compound 0.1 µM
[27] = second compound 3.16 µM, first compound 0.316 µM
[28] = second compound 3.16 µM, first compound 1 µM
[29] = second compound 3.16 µM, first compound 3.16 µM
[30] = second compound 3.16 µM, first compound 10 µM
[31] = second compound 10 µM, first compound 0.0316 µM
[32] = second compound 10 µM, first compound 0.1 µM
[33] = second compound 10 µM, first compound 0.316 µM
[34] = second compound 10 µM, first compound 1 µM
[35] = second compound 10 µM, first compound 3.16 µM
[36] = second compound 10 µM, first compound 10 µM
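Note: spheroids exposed to agents for seven days before readout.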

pIC50 (second compound 0.0316 µM): < 5.00
pIC50 (second compound 0.1 µM): < 5.00
pIC50 (second compound 0.316 µM): < 5.00
pIC50 (second compound 1 µM): 5.20
pIC50 (second compound 3.16 µM): 5.40
pIC50 (second compound 10 µM): 5.75
SMILES: C#Cc1c(F)ccc2cc(O)cc(-c3ncc4c(N5CC6CCC(C5)N6)nc(OCC56CCCN5CC(F)C6)nc4c3F)c12 (stereo unspecified) + CC(Nc1ncnc2nc[nH]c12)c1cc2cccc(Cl)c2c(=O)n1-c1ccccc1
viability, T/C [1]: 94.9%
viability, T/C [2]: 73.8%
viability, T/C [3]: 77.2%
viability, T/C [4]: 71.8%
viability, T/C [5]: 68.8%
viability, T/C [6]: 46.7%
viability, T/C [7]: 91.5%
viability, T/C [8]: 96.5%
viability, T/C [9]: 79.7%
viability, T/C [10]: 71.7%
viability, T/C [11]: 68.1%
viability, T/C [12]: 54.4%
viability, T/C [13]: 96.7%
viability, T/C [14]: 83.3%
viability, T/C [15]: 79.3%
viability, T/C [16]: 73.5%
viability, T/C [17]: 66.9%
viability, T/C [18]: 47.3%
viability, T/C [19]: 100%
viability, T/C [20]: 85.5%
viability, T/C [21]: 71.1%
viability, T/C [22]: 70.3%
viability, T/C [23]: 57.9%
viability, T/C [24]: 43.8%
viability, T/C [25]: 102%
viability, T/C [26]: 88.6%
viability, T/C [27]: 71.7%
viability, T/C [28]: 61%
viability, T/C [29]: 56%
viability, T/C [30]: 40.6%
viability, T/C [31]: 95.2%
viability, T/C [32]: 81.6%
viability, T/C [33]: 68.4%
viability, T/C [34]: 55.4%
viability, T/C [35]: 45.3%
viability, T/C [36]: 31.8%

pIC50 (second compound 0.0316 µM): < 5.00
pIC50 (second compound 0.1 µM): < 5.00
pIC50 (second compound 0.316 µM): < 5.00
pIC50 (second compound 1 µM): < 5.00
pIC50 (second compound 3.16 µM): < 5.00
pIC50 (second compound 10 µM): < 5.00
SMILES: CC(Cn1ccc(-c2ccc(C#N)c(Cl)c2)n1)NC(=O)c1cc(C(C)O)[nH]n1 (stereo unspecified) + CC(Nc1ncnc2nc[nH]c12)c1cc2cccc(Cl)c2c(=O)n1-c1ccccc1
viability, T/C [1]: 97.8%
viability, T/C [2]: 94.9%
viability, T/C [3]: 96.6%
viability, T/C [4]: 92.1%
viability, T/C [5]: 102%
viability, T/C [6]: 104%
viability, T/C [7]: 99.1%
viability, T/C [8]: 98.5%
viability, T/C [9]: 91.7%
viability, T/C [10]: 89%
viability, T/C [11]: 101%
viability, T/C [12]: 84.1%
viability, T/C [13]: 97%
viability, T/C [14]: 97.8%
viability, T/C [15]: 94.1%
viability, T/C [16]: 99.5%
viability, T/C [17]: 104%
viability, T/C [18]: 89.7%
viability, T/C [19]: 94.4%
viability, T/C [20]: 94.4%
viability, T/C [21]: 89.5%
viability, T/C [22]: 98.7%
viability, T/C [23]: 113%
viability, T/C [24]: 90.2%
viability, T/C [25]: 95.1%
viability, T/C [26]: 95.8%
viability, T/C [27]: 83.4%
viability, T/C [28]: 92.2%
viability, T/C [29]: 94.5%
viability, T/C [30]: 96.2%
viability, T/C [31]: 95%
viability, T/C [32]: 99.2%
viability, T/C [33]: 104%
viability, T/C [34]: 92.3%
viability, T/C [35]: 95.1%
viability, T/C [36]: 91.8%

pIC50 (second compound 0.0316 µM): < 5.00
pIC50 (second compound 0.1 µM): < 5.00
pIC50 (second compound 0.316 µM): < 5.00
pIC50 (second compound 1 µM): < 5.00
pIC50 (second compound 3.16 µM): < 5.00
pIC50 (second compound 10 µM): 5.04
SMILES: CC1(C)CCC(Nc2ncc(C(F)(F)F)c(-c3c[nH]c4c(P(C)(C)=O)c(C#N)ccc34)n2)CN1 (stereo unspecified) + CC(Nc1ncnc2nc[nH]c12)c1cc2cccc(Cl)c2c(=O)n1-c1ccccc1
viability, T/C [1]: 97.6%
viability, T/C [2]: 93%
viability, T/C [3]: 93.1%
viability, T/C [4]: 129%
viability, T/C [5]: 160%
viability, T/C [6]: 64.5%
viability, T/C [7]: 98%
viability, T/C [8]: 91.5%
viability, T/C [9]: 95.1%
viability, T/C [10]: 117%
viability, T/C [11]: 159%
viability, T/C [12]: 52.2%
viability, T/C [13]: 93.8%
viability, T/C [14]: 86.8%
viability, T/C [15]: 114%
viability, T/C [16]: 120%
viability, T/C [17]: 164%
viability, T/C [18]: 55.7%
viability, T/C [19]: 98.8%
viability, T/C [20]: 92.9%
viability, T/C [21]: 86.5%
viability, T/C [22]: 139%
viability, T/C [23]: 166%
viability, T/C [24]: 54.1%
viability, T/C [25]: 91.9%
viability, T/C [26]: 86%
viability, T/C [27]: 89.6%
viability, T/C [28]: 113%
viability, T/C [29]: 154%
viability, T/C [30]: 53.3%
viability, T/C [31]: 88.7%
viability, T/C [32]: 81.6%
viability, T/C [33]: 102%
viability, T/C [34]: 128%
viability, T/C [35]: 152%
viability, T/C [36]: 44.7%
